Measurements published in US10357477B2, “Anticancer compounds” (REGENTS OF THE UNIVERSITY OF MINNESOTA, priority 2016, dated 2019).
Values after ≈ are worked out from the molar mass of the structure shown.

Experiments:
[1] = Microsomal stability assay, human liver microsomes; assay type: in vitro ADME; details: pH 7.4; human liver microsomes 0.5 mg/mL, 1 mM NADPH, 1 μM compound; read-out: Microsomal Stability t1/2 Human
Method: (§1) The in vitro microsomal stability assay was conducted in triplicate in mouse and human liver microsomal systems. In a typical incubation, a compound (typically 1 μM final concentration) was spiked into the reaction mixture containing 0.5 mg/mL of liver microsomal protein and 1 mM of NADPH in 0.1 M potassium phosphate buffer (pH 7.4) at 37° C. At various time points, 1 volume of reaction aliquot was taken and quenched with 3 volumes of acetonitrile with an appropriate internal standard. The samples were then vortexed and centrifuged at 14,000 rpm for 5 min. The supernatants were collected and analyzed by LC-MS/MS to determine the in vitro metabolic half-life (t1/2) and intrinsic clearance (CLint). Verapamil was used as a positive control.
(§2) Quantification and analysis of compounds in biological samples were carried out on an AB Sciex QTrap 5500 mass spectrometer coupled with an Agilent 1260 Infinity HPLC. The chromatographic separation of compounds was achieved using a Phenomenex Kinetex C18 column (50×2.1 mm, 2.6 μm), and MS/MS analysis was conducted using an ESI ion source with MRM detection. The MS/MS detection parameters including declustering potential (DP), entrance potential (EP), collision energy (CE), and collision cell exit potential (CXP) were optimized for each compound.

[2] = Caco-2 permeability assay; assay type: in vitro ADME; details: human, pH 7.4; for Papp A→B at 80 min: apical to basolateral; for Papp B→A at 80 min: basolateral to apical
Method: Cell Culture. The human colon adenocarcinoma cell line Caco-2 was purchased from ATCC (American Type Culture Collection, Manassas, Va.), and was cultured in a humidified atmosphere of 5% CO2 at 37° C. Caco-2 cells were cultured in DMEM with 10% FBS, 1% NEAA, 1% GlutaMax and 1% penicillin and streptomycin solution. The culture medium was changed every other day during cell growth and differentiation. On achieving 80-90% confluence, the cells were rinsed with pre-warm DPBS (pH 7.4) and split using trypsin. The cells were then seeded on membranes of Millipore Millicell-24 cell culture device. The transepithelial electrical resistance (TEER) were assessed to reflect membrane integrity using a Millicells® ERS-2 (Millipore, USA). The Caco-2 cell monolayers were used for transport experiments on day 21 post-seeding with TEER values >500 Ω·cm2. Bidirectional Transport Experiments. Before the transport experiments, the cell monolayer was washed three times with HBSS. Then, the plates were incubated in fresh permeability assay buffer (HBSS containing 10 mM glucose and 20 mM HEPES, pH 7.4) at 37° C. The experiments were conducted by spiking test compounds to either the apical (AP, 0.4 mL) or basolateral side (BL, 0.8 mL), while the receiving chamber contained the corresponding volume of pre-warmed permeability assay buffer. Every experiment was repeated in duplicate, and the plates were incubated in an orbital shaker at 37° C., 50 rpm/min. To assess the drug transport, at the incubation time of 20, 40, 60 and 80 min, aliquot was removed and was immediately replenished with an equal volume of permeability assay buffer. The samples were then subjected to LC/MS/MS analysis. The apparent permeability coefficient was indicated by the absorption rate constant Papp. It could be calculated as PBA (measured in BL to AP direction) or PAB (measured in AP to BL direction), using the equation of Papp=(dQ/dt)/(A×C0). dQ/dt is the rate at which the compound appears in the receiver chamber (nmol/s), A is the surface area of the filter membrane (0.7 cm2) and C0 is the initial concentration in the donor chamber (μM). Efflux ratio (ER) was calculated by the equation of ER=PBA/PAB, where PBA is the Papp value measured in BL to AP direction, and PAB is the Papp value measured in AP to BL direction.

[3] = Plasma stability assay, human plasma; assay type: in vitro ADME; details: 37° C.
Method: (§3) The plasma stability assay was performed in triplicate by incubating a compound in normal mouse and human plasma at 37° C. At 0, 1, 3, 6, and 24 h, aliquots of the plasma mixture were taken and quenched with 3 volumes of acetonitrile containing an appropriate internal standard. The samples were then vortexed and centrifuged at 14,000 rpm for 5 min. The supernatants were collected and analyzed by LC-MS/MS to determine the remaining percentage at various time points.
as §2

MIA PaCa-2 cells = assay: Cell viability assay (MTT) in MIA PaCa-2 cells; assay type: cell-based; details: Homo sapiens, antiproliferative activity, 72 h
In short: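 MIA PaCa-2 cells exposed 72 h at 37° C to 2-fold serial compound dilutions from 100 μM final, 0.5% DMSO, in triplicate. Viability by MTT (3 h), formazan read at 570 nm minus 650 nm; EC50 from curve fit.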

[4] = Microsomal stability assay, mouse liver microsomes; assay type: in vitro ADME; details: pH 7.4; mouse liver microsomes 0.5 mg/mL, 1 mM NADPH, 1 μM compound; read-out: Microsomal Stability t1/2 Mouse
Method: as §1, §2

[5] = test system: MCF10A cells (normal human mammary cells); assay: Cell viability assay (MTT) in MCF10A cells; assay type: cell-based; details: MCF-10A, 72 h
Method: MCF10A cells are maintained in minimum essential medium (MEM) (Invitrogen 11095) supplemented with 10% FBS (Invitrogen 16000), 1% 10× non-essential amino acids (NEAA) (Invitrogen 11140), 1% Penicillin/Streptomycin (Invitrogen 15140), 1% GlutaMAX (Invitrogen 35050-061), 20 ng/mL EGF, […] hydrocortisone, 100 ng/mL cholera toxin, 10 μg/mL insulin.
Cells were plated in 96-well plates at 25×10^4 cells/ml. After 24 hours, compounds were added at 9, 3× dilutions in triplicate from 100 uM final concentration in the appropriate growth media. Plates were incubated for 72 hours at 37° C. in a 5% CO2/95% air humidified atmosphere after which time the media was removed and MTT was added in RPMI phenol red free media. The MTT was removed after 3 hours and formazan crystals were solubilized with 200 μL of isopropanol. Plates were read on a Molecular Devices SpectraMax i3 spectrophotometer at 570 nm for formazan and 690 nm for background subtraction. EC50 values were calculated by fitting the data in GraphPad Prism software.

[6] = Thermodynamic solubility assay; assay type: physicochemical; details: aqueous buffer, thermodynamic from solid, DPBS pH=7.4, 48 h, ambient temperature
Method: Briefly, a saturated solution was made by adding DPBS to the solid compound. The mixture was shaken at 200 rpm for 48 h in a MaxQ 6000 orbital shaker at ambient temperature to allow equilibrium between the solid and dissolved compound. The suspension was then filtered through a 0.45 μm PVDF syringe filter and the filtrate was collected for analysis using UV spectrometry (SpectraMax M5e, Molecular Devices) at λ=240 nm.

[7] = Plasma stability assay, mouse plasma; assay type: in vitro ADME; details: 37° C.
Method: as §3, §2

Row | Structure (SMILES) | half-life at 1 μM [1] | Papp A→B at 80 min [2] | Papp B→A at 80 min [2] | Plasma Stability (% remaining, 6 h/24 h) Human ([3]; 6 h) | Plasma Stability (% remaining, 6 h/24 h) Human ([3]; 24 h) | EC50 (MIA PaCa-2 cells) | half-life at 1 μM [4] | EC50 [5] | solubility at 48 h [6] | Plasma Stability (% remaining, 6 h/24 h) Mouse ([7]; 6 h) | Plasma Stability (% remaining, 6 h/24 h) Mouse ([7]; 24 h)
1 | CNC(=O)c1cccc(Cn2nc(C)c(NC(=O)c3ccc(COc4ccc(C(F)(F)F)cc4C)cc3)c2C)c1 [Compound D10, 3-((3,5-Dimethyl-4-(4-((2-methyl-4-(trifluoromethyl)phenoxy)-methyl)benzamido)-1H-pyrazol-1-yl)methyl)-N-methylbenzamide] | 53 min | 3.72 ×10⁻⁶ cm/s | 11.2 ×10⁻⁶ cm/s | 98% | 100% | 0.62 µM | 53 min | 4.8 µM | 166 ± 2 µM (≈ 91.4 µg/mL) | 88% | 93%
2 | CNC(=O)c1cccc(Cn2nc(C)c(NC(=O)c3ccc(COc4ccc(C(F)(F)F)cc4)cc3)c2C)n1 [Compound E1a, 6-((3,5-Dimethyl-4-(4-((4-(trifluoromethyl)phenoxy)methyl)-benzamido)-1H-pyrazol-1-yl)methyl)-N-methylpicolinamide] | 47 min | 24.5 ×10⁻⁶ cm/s | 21 ×10⁻⁶ cm/s | – | —/100% | 0.48 µM | 65 min | 7.8 µM | – | – | —/99%
3 | CC(=O)Nc1cccc(Cn2nc(C)c(NC(=O)c3ccc(COc4ccc(C(F)(F)F)cc4)cc3)c2C)c1 [Compound D11, N-(1-(3-Acetamidobenzyl)-3,5-dimethyl-1H-pyrazol-4-yl)-4-((4-(trifluoromethyl)phenoxy)methyl)benzamide] | 8.3 min | – | – | 96% | 94% | 0.87 µM | 7.4 min | 8.6 µM | – | 2.1% | 0.1%
4 | CNC(=O)c1cc(Cn2nc(C)c(NC(=O)c3ccc(COc4ccc(C(F)(F)F)cc4C)cc3)c2C)ccn1 [Compound E2b, 4-((3,5-Dimethyl-4-(4-((2-methyl-4-(trifluoromethyl)phenoxy)methyl)benzamido)-1H-pyrazol-1-yl)methyl)-N-methylpicolinamide] | 89 min | 8.34 ×10⁻⁶ cm/s | 5.96 ×10⁻⁶ cm/s | – | —/100% | 0.33 µM | 89 min | 7.4 µM | 211 ± 5 µM (≈ 116 µg/mL) | – | —/84%
5 | CNC(=O)c1cncc(Cn2nc(C)c(NC(=O)c3ccc(COc4ccc(C(F)(F)F)cc4C)cc3)c2C)c1 [Compound E3b, 5-((3,5-Dimethyl-4-(4-((2-methyl-4-(trifluoromethyl)phenoxy)methyl)benzamido)-1H-pyrazol-1-yl)methyl)-N-methylnicotinamide] | 74 min | – | – | – | —/98% | 7.6 µM | 139 min | – | – | – | —/100%
6 | CNC(=O)c1cc(Cn2nc(C)c(NC(=O)c3ccc(COc4ccc(C(F)(F)F)cc4)cc3)c2C)ccn1 [Compound E2a, 4-((3,5-Dimethyl-4-(4-((4-(trifluoromethyl)phenoxy)methyl)benzamido)-1H-pyrazol-1-yl)methyl)-N-methylpicolinamide] | 112 min | 5.02 ×10⁻⁶ cm/s | 5.69 ×10⁻⁶ cm/s | – | —/98% | 0.85 µM | 64 min | 8.3 µM | – | – | —/91%
7 | CNC(=O)c1cccc(Cn2nc(C)c(NC(=O)c3ccc(COc4ccc(C(F)(F)F)cc4C)cc3)c2C)n1 [Compound E1b, 6-((3,5-Dimethyl-4-(4-((2-methyl-4-(trifluoromethyl)phenoxy)methyl)benzamido)-1H-pyrazol-1-yl)methyl)-N-methylpicolinamide] | 47 min | 3.58 ×10⁻⁶ cm/s | 7.17 ×10⁻⁶ cm/s | – | —/100% | 6.3 µM | 75 min | – | – | – | —/96%
8 | CC(=O)Nc1cccc(Cn2nc(C)c(NC(=O)c3ccc(COc4ccc(C(F)(F)F)cc4C)cc3)c2C)c1 [Compound D12, N-(1-(3-Acetamidobenzyl)-3,5-dimethyl-1H-pyrazol-4-yl)-4-((2-methyl-4-(trifluoromethyl)phenoxy)methyl)benzamide] | 14 min | – | – | 92% | 95% | 1.1 µM | 9.7 min | 6.6 µM | – | 1.6% | 0.1%
